The values below come from paper PMC8286840, “Identifying SARS-CoV-2 antiviral compounds by screening for small molecule inhibitors of Nsp3 papain-like protease” (Biochemical Journal, 2021).

Counter-ions that a name gives are not always drawn. Like-named read-outs stand apart in the source and are kept apart here.

For assay [1], the target named is T1, SARS-CoV-2 PLpro (nsp3 1564–1878) (Severe acute respiratory syndrome coronavirus 2, UniProt P0DTD1). Nature of the assay: biochemical. Also noted: FRET-quenched peptide (Pro3) cleavage by PLpro, 10 min pre-incubation, slope over 20 min, normalised to no-compound control. To be noted: low concentration screen, read-out: % of control remaining.
The target of assay [2] is T1, SARS-CoV-2 PLpro (nsp3 1564–1878). Nature of the assay: biochemical. The following applies: high concentration screen, read-out: % of control remaining. Also noted: FRET-quenched peptide (Pro3) cleavage by PLpro, 10 min pre-incubation, slope over 20 min, normalised to no-compound control.

As for `O=C(Nc1nc2ccc(NC(=O)C34C[C@H]5C[C@@H](C3)C[C@@H](C4)C5)cc2s1)c1ccccc1` [NVP-231], the remaining activity at 1.25 µM in assay [1] (Well no.=5410) turned out to be 95.2%. In assay [2] (Well no.=5410), the remaining activity at 3.75 µM is 86.5%.

Turning to `CCOC(=O)[C@H](CCc1ccccc1)N[C@@H](C)C(=O)N1C(=O)N(C)C[C@H]1C(=O)O` [Imidapril hydrochloride], the remaining activity at 1.25 µM in assay [1] (Well no.=5696) came to 91.8%. Also, the remaining activity at 3.75 µM in assay [2] (Well no.=5696) came out at 92.9%.

Consider `Cc1[nH]c(/C=C2\C(=O)Nc3ccc(S(=O)(=O)N(C)c4cccc(Cl)c4)cc32)c(C)c1C(=O)N1CCN(C)CC1` [SU11274], for which, in assay [1] (Well no.=8164), the remaining activity at 1.25 µM is 95.8%. In addition, in assay [2] (Well no.=8164), the remaining activity at 3.75 µM is 94.4%.

On to `Cc1ccc(F)c(NC(=O)Nc2ccc(-c3cccc4[nH]nc(N)c34)cc2)c1` [ABT-869], for which, in assay [1] (Well no.=2740), the remaining activity at 1.25 µM was 94.6%. Further, the remaining activity at 3.75 µM in assay [2] (Well no.=2740) came out at 93.3%.

Consider `NCCCC[C@H](N[C@@H](CCc1ccccc1)C(=O)O)C(=O)N1CCC[C@H]1C(=O)O` [Lisinopril (dihydrate)], for which, in assay [1] (Well no.=7736), the remaining activity at 1.25 µM came out at 95.6%. In addition, the remaining activity at 3.75 µM in assay [2] (Well no.=7736) worked out at 96.7%.

As to `C=C1C(=O)O[C@@H]2C[C@@]3(C)CCCC(=C)[C@@H]3C[C@H]12` [Isoalantolactone], the remaining activity at 1.25 µM in assay [1] (Well no.=6728) turned out to be 97.1%. Further, in assay [2] (Well no.=6728), the remaining activity at 3.75 µM was determined as 93.6%.

Turning to `CN(C)CCC=C1c2ccccc2C=Cc2ccccc21` [Cyclobenzaprine hydrochloride], in assay [1] (Well no.=320), the remaining activity at 1.25 µM worked out at 92.5%. In addition, in assay [2] (Well no.=320), the remaining activity at 3.75 µM stood at 93.2%.

Consider `C[C@@H](CN1CC(=O)NC(=O)C1)N1CC(=O)NC(=O)C1` [Dexrazoxane HCl], for which the remaining activity at 1.25 µM in assay [1] (Well no.=5139) was determined as 101%. Besides, in assay [2] (Well no.=5139), the remaining activity at 3.75 µM was 104%.

With `O=C(Nc1cccc(Cl)c1)c1ccccn1` [VU0364770], the remaining activity at 1.25 µM in assay [1] (Well no.=7761) came out at 102%. Further, the remaining activity at 3.75 µM in assay [2] (Well no.=7761) stood at 105%.

As for `CCOC(=O)c1cnn(-c2ccccc2)c1NC(=O)c1cc2nc(-c3ccco3)cc(C(F)(F)Cl)n2n1` [Mycro 3], the remaining activity at 1.25 µM in assay [1] (Well no.=7158) was determined as 96%. In addition, the remaining activity at 3.75 µM in assay [2] (Well no.=7158) came to 94.4%.

For `CCCCOCCOc1ccc(-c2ccc3c(c2)/C=C(/C(=O)Nc2ccc([S@@+]([O-])Cc4cncn4CCC)cc2)CCCN3CC(C)C)cc1` [Cenicriviroc], the remaining activity at 1.25 µM in assay [1] (Well no.=8515) is 104%. In addition, the remaining activity at 3.75 µM in assay [2] (Well no.=8515) came out at 105%.

As for `O=C(N[C@H]1CCS[C@H]2CCC[C@@H](C(=O)O)N2C1=O)[C@@H](S)Cc1ccccc1` [Omapatrilat], the remaining activity at 1.25 µM in assay [1] (Well no.=8466) was 99.9%. Also, in assay [2] (Well no.=8466), the remaining activity at 3.75 µM was 95%.

On to `CC(CCc1ccccc1)NC(C)C(O)c1ccc(O)cc1` (stereo not drawn) [Nylidrin hydrochloride], for which, in assay [1] (Well no.=940), the remaining activity at 1.25 µM amounted to 96%. For the same molecule, the remaining activity at 3.75 µM in assay [2] (Well no.=940) was 95.1%.

For the molecule `CC[N+](C)(C)c1cccc(O)c1` [Edrophonium chloride], the remaining activity at 1.25 µM in assay [1] (Well no.=555) was determined as 99.7%. For the same molecule, the remaining activity at 3.75 µM in assay [2] (Well no.=555) is 100%.

In the case of `Oc1ncnc2[nH]ncc12` [Allopurinol], the remaining activity at 1.25 µM in assay [1] (Well no.=102) came out at 106%; in assay [1] (Well no.=2077) it was 104%. Also, the values for the remaining activity at 3.75 µM in assay [2] (Well no.=102) and in assay [2] (Well no.=2077) were 105% and 104%, respectively.

As to `C=CCN1CCc2c(cc(O)c(O)c2Br)[C@@H](c2ccccc2)C1` [R(+)-6-Bromo-APB hydrobromide], the remaining activity at 1.25 µM in assay [1] (Well no.=277) came to 98.1%. Moreover, in assay [2] (Well no.=277), the remaining activity at 3.75 µM worked out at 97.4%.

For `CN(C)c1cc2c(Nc3ccc4c(cnn4Cc4ccccc4)c3)ncnc2cn1` [GW2974], the remaining activity at 1.25 µM in assay [1] (Well no.=523) came out at 103%. In assay [2] (Well no.=523), the remaining activity at 3.75 µM is 100%.

In the case of `O=C(O)CC[N+](=O)[O-]` [3-Nitropropionic acid], the remaining activity at 1.25 µM in assay [1] (Well no.=953) was 100%. In assay [2] (Well no.=953), the remaining activity at 3.75 µM was found to be 99.4%.

For the molecule `CCN1CCN(c2cc3c(cc2F)c(=O)c(C(=O)O)cn3C2CC2)CC1` [Enrofloxacin], in assay [1] (Well no.=2028), the remaining activity at 1.25 µM worked out at 104%. In addition, the remaining activity at 3.75 µM in assay [2] (Well no.=2028) came to 104%.

With `NCCCCNCCCN` [Spermidine trihydrochloride], the remaining activity at 1.25 µM in assay [1] (Well no.=1168) was 102%. Further, the remaining activity at 3.75 µM in assay [2] (Well no.=1168) was 104%.

With `C[C@H]1CNCCc2ccc(Cl)cc21` [Lorcaserin HCl], in assay [1] (Well no.=4742), the remaining activity at 1.25 µM was found to be 102%. Also, the remaining activity at 3.75 µM in assay [2] (Well no.=4742) was 102%.

For `CC(C)(C)NCC(O)c1cc(Cl)c(N)c(Cl)c1` (stereo not drawn) [Clenbuterol (hydrochloride)], the remaining activity at 1.25 µM in assay [1] (Well no.=7371) was 103%. Moreover, the remaining activity at 3.75 µM in assay [2] (Well no.=7371) came out at 104%.

On to `COc1ccc(-c2ccc3c(N4CCOCC4)nc(N4C[C@@H](C)O[C@@H](C)C4)nc3n2)cc1CO` [KU0063794], for which, in assay [1] (Well no.=2899), the remaining activity at 1.25 µM was 105%. Also, in assay [2] (Well no.=2899), the remaining activity at 3.75 µM was 103%.

With `Cc1ccc(Nc2nccc(N(C)c3ccc4c(C)n(C)nc4c3)n2)cc1S(N)(=O)=O` [Pazopanib HCl], the remaining activity at 1.25 µM in assay [1] (Well no.=4613) amounted to 110%. The remaining activity at 3.75 µM in assay [2] (Well no.=4613) stood at 107%.

For the molecule `COc1ccc2c(c1)c(CC(=O)N1CCOCC1)c(C)n2C(=O)c1ccc(Cl)cc1` [Indomethacin morpholinylamide], the remaining activity at 1.25 µM in assay [1] (Well no.=971) is 94.6%. The remaining activity at 3.75 µM in assay [2] (Well no.=971) was determined as 89.7%.

In the case of `O=C(Nc1ncc(SCCN2CCCC2)s1)[C@]1(c2ccc(S(=O)(=O)C3CC3)cc2)C[C@H]1C1CCCCC1` [LY2608204], the remaining activity at 1.25 µM in assay [1] (Well no.=4772) turned out to be 100%. Besides, the remaining activity at 3.75 µM in assay [2] (Well no.=4772) turned out to be 99.2%.

Regarding `CCCN(CCC)CCc1ccc(O)c(O)c1` [Dipropyldopamine hydrobromide], the remaining activity at 1.25 µM in assay [1] (Well no.=684) came to 98.3%. Besides, the remaining activity at 3.75 µM in assay [2] (Well no.=684) was 98.3%.

As to `NNCCc1ccccc1` [Phenelzine sulfate], the remaining activity at 1.25 µM in assay [1] (Well no.=1203) was determined as 99.6%. For the same molecule, the remaining activity at 3.75 µM in assay [2] (Well no.=1203) amounted to 98.7%.

As for `C=CCN1C[C@H](C)N([C@H](c2ccc(C(=O)N(CC)CC)cc2)c2cccc(OC)c2)C[C@H]1C` [SNC80], the remaining activity at 1.25 µM in assay [1] (Well no.=1216) was 99.3%. Moreover, in assay [2] (Well no.=1216), the remaining activity at 3.75 µM turned out to be 102%.

As for `CCOC(=O)C1=C(C)NC(C)=C(C(=O)OC)C1c1cccc(Cl)c1Cl` (stereo not drawn) [Felodipine], the remaining activity at 1.25 µM in assay [1] (Well no.=521) was 106%; in assay [1] (Well no.=1757), 99.7%. The remaining activity at 3.75 µM in assay [2] (Well no.=1757) was 102%.

On to `C=CCN1CCc2cccc3c2[C@H]1Cc1ccc(O)c(O)c1-3` [R(-)-N-Allylnorapomorphine hydrobromide], for which the remaining activity at 1.25 µM in assay [1] (Well no.=398) turned out to be 98.8%. In assay [2] (Well no.=398), the remaining activity at 3.75 µM is 97.4%.

For `COc1nc(OCc2cccc(-c3ccccc3)c2C)ccc1CNCCNC(C)=O` [BMS-202], the results for the remaining activity at 1.25 µM in assay [1] (Well no.=8469) and in assay [1] (Well no.=8694) were 100% and 96.5%, respectively. In addition, the remaining activity at 3.75 µM in assay [2] (Well no.=8469) is 95.5%; in assay [2] (Well no.=8694), 93.7%.
